The conditions of series [1]: 10 ml of 5 wt % stock solution + 100 microliters acidified silver chloride, ceramic cylinder.
The subject of the next series is Staphylococcus aureus. Type of series: cell-based. The following applies: pH 7.
For series [2], the system named is S. aureus (Staphylococcus aureus ATCC#6538). In kind it is cell-based.

“Also recorded” adds a separate entry of the source.

For `OO` [hydrogen peroxide], the “gas formation on the test cylinder” value in series [1] is “slow formation of gas”.
For furoyl chlorate, in the series with Staphylococcus aureus, the “biocide efficacy (in words)” value is reported as “no antimicrobial efficacy”. In series [2], the “rate of kill / biocide efficacy (in words)” value was “excellent rate of kill; also recorded: excellent biocide efficacy”.

These data come from patent publication US9675065B2 (priority 2011, dated 2017).
